According to the supplement of paper PMC13207355:

Legend:
Conditions in all cases: exposure time: 72 h
E13 [1] = patient-derived glioblastoma stem cells of classical subtype; assay: surviving fraction (nuclei count normalised to DMSO); higher = more cells surviving (less toxic)
E21 [2] = patient-derived glioblastoma stem cells of mesenchymal subtype; assay: as above
E28 [3] = patient-derived glioblastoma stem cells of classical subtype; assay: as above
E31 [4] = patient-derived glioblastoma stem cells of proneural subtype; assay: as above
E34 [5] = patient-derived glioblastoma stem cells of proneural subtype; assay: as above
E57 [6] = patient-derived glioblastoma stem cells of mesenchymal subtype; assay: as above
FT3469 [7] = normal neural stem cell line; assay: as above
E13 [8] = assay: phenotypic distance (Euclidean, principal components) from DMSO controls (arbitrary units); higher = stronger morphological change
E21 [9] = assay: as above
E28 [10] = assay: as above
E31 [11] = assay: as above
E34 [12] = assay: as above
E57 [13] = assay: as above
FT3469 [14] = assay: as above
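Throughout, for phenotypic distance (Euclidean, principal components) from DMSO controls: cell Painting imaging in 384-well plates, CellProfiler features reduced to at least 20 principal components, Euclidean distance versus same-plate DMSO vehicle wells (0.1% v/v), median over six images per well.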
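Throughout, for surviving fraction (nuclei count normalised to DMSO): nuclei counted by high-content imaging of Hoechst-stained cells in laminin-coated 384-well plates, relative to 0.1% DMSO vehicle wells, with staurosporine as cell-death control.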

C[C@@H](O)[C@H]1C(=O)N2C(C(=O)O)=C(S[C@@H]3CN[C@H](C(=O)N(C)C)C3)[C@H](C)[C@H]12 [Meropenem]
Conditions	phenotypic distance	surviving fraction
E13 [1], 4.11523 nM	–	0.996
E13 [1], 12.34567901 nM	–	1.11
E13 [1], 37.037 nM	–	0.951
E13 [1], 111.1111111 nM	–	1.09
E13 [1], 333.333 nM	–	1.05
E13 [1], 1000 nM	–	1.31
E13 [1], 3000 nM	–	1.17
E13 [8], 4.11523 nM	0.447	–
E13 [8], 12.34567901 nM	0.391	–
E13 [8], 37.037 nM	0.465	–
E13 [8], 111.1111111 nM	0.343	–
E13 [8], 333.333 nM	0.428	–
E13 [8], 1000 nM	1.47	–
E13 [8], 3000 nM	0.693	–
E21 [2], 4.11523 nM	–	1.15
E21 [2], 12.34567901 nM	–	1.14
E21 [2], 37.037 nM	–	1.07
E21 [2], 111.1111111 nM	–	1.11
E21 [2], 333.333 nM	–	1.02
E21 [2], 1000 nM	–	1.16
E21 [2], 3000 nM	–	1.06
E21 [9], 4.11523 nM	1.01	–
E21 [9], 12.34567901 nM	1	–
E21 [9], 37.037 nM	0.846	–
E21 [9], 111.1111111 nM	3.57	–
E21 [9], 333.333 nM	0.377	–
E21 [9], 1000 nM	0.695	–
E21 [9], 3000 nM	0.387	–
E28 [3], 4.11523 nM	–	1.11
E28 [3], 12.34567901 nM	–	1.17
E28 [3], 37.037 nM	–	1.12
E28 [3], 111.1111111 nM	–	1.08
E28 [3], 333.333 nM	–	1.29
E28 [3], 1000 nM	–	1.23
E28 [3], 3000 nM	–	1.03
E28 [10], 4.11523 nM	0.51	–
E28 [10], 12.34567901 nM	0.969	–
E28 [10], 37.037 nM	0.452	–
E28 [10], 111.1111111 nM	0.706	–
E28 [10], 333.333 nM	0.645	–
E28 [10], 1000 nM	0.83	–
E28 [10], 3000 nM	0.601	–
E31 [4], 4.11523 nM	–	1.13
E31 [4], 12.34567901 nM	–	1.1
E31 [4], 37.037 nM	–	1.15
E31 [4], 111.1111111 nM	–	0.926
E31 [4], 333.333 nM	–	1.17
E31 [4], 1000 nM	–	1.01
E31 [4], 3000 nM	–	1.16
E31 [11], 4.11523 nM	0.705	–
E31 [11], 12.34567901 nM	0.703	–
E31 [11], 37.037 nM	0.741	–
E31 [11], 111.1111111 nM	0.746	–
E31 [11], 333.333 nM	0.485	–
E31 [11], 1000 nM	0.528	–
E31 [11], 3000 nM	0.487	–
E34 [5], 4.11523 nM	–	1.07
E34 [5], 12.34567901 nM	–	1.03
E34 [5], 37.037 nM	–	1.11
E34 [5], 111.1111111 nM	–	1.17
E34 [5], 333.333 nM	–	1.07
E34 [5], 1000 nM	–	0.937
E34 [5], 3000 nM	–	1.02
E34 [12], 4.11523 nM	0.76	–
E34 [12], 12.34567901 nM	0.538	–
E34 [12], 37.037 nM	0.692	–
E34 [12], 111.1111111 nM	0.922	–
E34 [12], 333.333 nM	0.78	–
E34 [12], 1000 nM	0.612	–
E34 [12], 3000 nM	0.538	–
E57 [6], 4.11523 nM	–	1
E57 [6], 12.34567901 nM	–	1.01
E57 [6], 37.037 nM	–	1.01
E57 [6], 111.1111111 nM	–	1.03
E57 [6], 333.333 nM	–	1.01
E57 [6], 1000 nM	–	1.06
E57 [6], 3000 nM	–	0.989
E57 [13], 4.11523 nM	0.603	–
E57 [13], 12.34567901 nM	0.59	–
E57 [13], 37.037 nM	0.529	–
E57 [13], 111.1111111 nM	0.751	–
E57 [13], 333.333 nM	0.536	–
E57 [13], 1000 nM	0.871	–
E57 [13], 3000 nM	0.419	–
FT3469 [7], 4.11523 nM	–	1.24
FT3469 [7], 12.34567901 nM	–	1.17
FT3469 [7], 37.037 nM	–	1.17
FT3469 [7], 111.1111111 nM	–	1.1
FT3469 [7], 333.333 nM	–	1.28
FT3469 [7], 1000 nM	–	0.993
FT3469 [7], 3000 nM	–	0.866
FT3469 [14], 4.11523 nM	0.799	–
FT3469 [14], 12.34567901 nM	1.17	–
FT3469 [14], 37.037 nM	0.764	–
FT3469 [14], 111.1111111 nM	1.09	–
FT3469 [14], 333.333 nM	0.633	–
FT3469 [14], 1000 nM	0.854	–
FT3469 [14], 3000 nM	0.676	–

CC1CNc2c(cccc2S(=O)(=O)N[C@@H](CCCNC(=N)N)C(=O)N2CC[C@@H](C)C[C@@H]2C(=O)O)C1 (stereo partly specified) [Argatroban]
Conditions	phenotypic distance	surviving fraction
E13 [1], 4.1 nM	–	0.887
E13 [1], 12.3 nM	–	0.726
E13 [1], 37 nM	–	1.06
E13 [1], 111.1 nM	–	0.787
E13 [1], 333.3 nM	–	1.03
E13 [1], 1000 nM	–	0.955
E13 [1], 3000 nM	–	1.04
E13 [8], 4.1 nM	0.936	–
E13 [8], 12.3 nM	1.03	–
E13 [8], 37 nM	0.706	–
E13 [8], 111.1 nM	0.818	–
E13 [8], 333.3 nM	0.637	–
E13 [8], 1000 nM	0.667	–
E13 [8], 3000 nM	0.543	–
E21 [2], 4.1 nM	–	0.935
E21 [2], 12.3 nM	–	0.953
E21 [2], 37 nM	–	0.963
E21 [2], 111.1 nM	–	0.778
E21 [2], 333.3 nM	–	1.07
E21 [2], 1000 nM	–	1.08
E21 [2], 3000 nM	–	1.11
E21 [9], 4.1 nM	1.43	–
E21 [9], 12.3 nM	0.727	–
E21 [9], 37 nM	1.18	–
E21 [9], 111.1 nM	0.876	–
E21 [9], 333.3 nM	1.26	–
E21 [9], 1000 nM	1.01	–
E21 [9], 3000 nM	1.26	–
E28 [3], 4.1 nM	–	0.975
E28 [3], 12.3 nM	–	0.963
E28 [3], 37 nM	–	0.877
E28 [3], 111.1 nM	–	1.3
E28 [3], 333.3 nM	–	1.01
E28 [3], 1000 nM	–	1.14
E28 [3], 3000 nM	–	1.16
E28 [10], 4.1 nM	0.894	–
E28 [10], 12.3 nM	0.602	–
E28 [10], 37 nM	0.844	–
E28 [10], 111.1 nM	0.794	–
E28 [10], 333.3 nM	0.356	–
E28 [10], 1000 nM	0.549	–
E28 [10], 3000 nM	0.893	–
E31 [4], 4.1 nM	–	1.08
E31 [4], 12.3 nM	–	0.893
E31 [4], 37 nM	–	0.911
E31 [4], 111.1 nM	–	0.95
E31 [4], 333.3 nM	–	0.959
E31 [4], 1000 nM	–	1.04
E31 [4], 3000 nM	–	1.12
E31 [11], 4.1 nM	0.911	–
E31 [11], 12.3 nM	0.664	–
E31 [11], 37 nM	0.863	–
E31 [11], 111.1 nM	0.601	–
E31 [11], 333.3 nM	2.25	–
E31 [11], 1000 nM	0.919	–
E31 [11], 3000 nM	0.822	–
E34 [5], 4.1 nM	–	1.04
E34 [5], 12.3 nM	–	1.04
E34 [5], 37 nM	–	0.976
E34 [5], 111.1 nM	–	0.935
E34 [5], 333.3 nM	–	1.05
E34 [5], 1000 nM	–	1.13
E34 [5], 3000 nM	–	0.923
E34 [12], 4.1 nM	0.682	–
E34 [12], 12.3 nM	0.667	–
E34 [12], 37 nM	0.842	–
E34 [12], 111.1 nM	0.535	–
E34 [12], 333.3 nM	0.743	–
E34 [12], 1000 nM	1.04	–
E34 [12], 3000 nM	1.26	–
E57 [6], 4.1 nM	–	1.01
E57 [6], 12.3 nM	–	1.03
E57 [6], 37 nM	–	0.918
E57 [6], 111.1 nM	–	1.04
E57 [6], 333.3 nM	–	1.04
E57 [6], 1000 nM	–	1.01
E57 [6], 3000 nM	–	0.888
E57 [13], 4.1 nM	0.489	–
E57 [13], 12.3 nM	0.826	–
E57 [13], 37 nM	0.498	–
E57 [13], 111.1 nM	0.438	–
E57 [13], 333.3 nM	0.495	–
E57 [13], 1000 nM	0.711	–
E57 [13], 3000 nM	0.963	–
FT3469 [7], 4.1 nM	–	0.74
FT3469 [7], 12.3 nM	–	0.878
FT3469 [7], 37 nM	–	0.961
FT3469 [7], 111.1 nM	–	0.906
FT3469 [7], 333.3 nM	–	1.09
FT3469 [7], 1000 nM	–	0.99
FT3469 [7], 3000 nM	–	0.886
FT3469 [14], 4.1 nM	3.82	–
FT3469 [14], 12.3 nM	1.39	–
FT3469 [14], 37 nM	0.709	–
FT3469 [14], 111.1 nM	0.753	–
FT3469 [14], 333.3 nM	0.744	–
FT3469 [14], 1000 nM	0.391	–
FT3469 [14], 3000 nM	1.07	–
